# Measured values reported in ChEMBL document CHEMBL4387771, “Discovery of 1,2,3-triazole-based fibroblast growth factor receptor modulators” (Bioorg Med Chem Lett, 2019).
# The source made the active and inactive calls. The calls are words filed in the database; no cut-off is given here.
# What was measured:
# [1] = Metabolic stability in human liver microsomes assessed as metabolic turnover rate per mg protein in presence of NADPH; assay type: ADME, Microsome
# [2] = Lipophilicity, log P of the compound by RP-HPLC analysis; assay type: physicochemical
# CYP3A4 = CYP3A4 (Homo sapiens, UniProt P08684); assay: Inhibition of CYP3A4 in human liver microsomes assessed as enzyme residual activity at 100 uM measured after 30 mins relative to control; assay type: ADME; details: read-out: Activity
# [3] = target: Fibroblast growth factor receptor 1 (Rattus norvegicus) (UniProt Q04589); assay: Modulation of FGFR in Wistar rat neuronal cells assessed as protection against glutamate-induced toxicity at 10 uM pretreated for 24 hrs followed by glutamate-stimulation and measured after 24 hrs by CCK8 assay relative to SUN13837; assay type: cell-based
# [4] = Elimination half life in Sprague-Dawley rat at 1 mg/kg, iv; assay type: ADME, organism-based; details: in vivo, read-out: beta t1/2 (converted)
# [5] = Clearance in Sprague-Dawley rat at 1 mg/kg, iv; assay type: ADME, organism-based; details: in vivo
# [6] = AUC in Sprague-Dawley rat at 5 mg/kg, po; assay type: ADME, organism-based; details: in vivo
# [7] = Brain to plasma permeability coefficient, Kp of the compound in Sprague-Dawley rat at 1 mg/kg, iv measured after 1 hr; assay type: ADME, organism-based; details: brain and plasma
# [8] = Oral bioavailability in Sprague-Dawley rat at 5 mg/kg; assay type: ADME, organism-based; details: in vivo
# [9] = Elimination half life in Sprague-Dawley rat at 3 mg/kg, iv; assay type: ADME, organism-based; details: in vivo, read-out: beta t1/2 (converted)
# [10] = Brain to plasma permeability coefficient, Kp of the compound in Sprague-Dawley rat at 3 mg/kg, iv measured after 1 hr; assay type: ADME, organism-based; details: brain and plasma
# [11] = Clearance in Sprague-Dawley rat at 3 mg/kg, iv; assay type: ADME, organism-based; details: in vivo
# [12] = target: Fibroblast growth factor receptor 1 (Rattus norvegicus) (UniProt Q04589); assay: Modulation of FGFR in Wistar rat neuronal cells assessed as protection against glutamate-induced toxicity at 10 uM pretreated for 24 hrs followed by glutamate-stimulation and measured after 24 hrs in presence of FGFR1 inhibitor PD166866 by CCK8 assay; assay type: cell-based
# CYP3A4, sequence (P08684 whole entry): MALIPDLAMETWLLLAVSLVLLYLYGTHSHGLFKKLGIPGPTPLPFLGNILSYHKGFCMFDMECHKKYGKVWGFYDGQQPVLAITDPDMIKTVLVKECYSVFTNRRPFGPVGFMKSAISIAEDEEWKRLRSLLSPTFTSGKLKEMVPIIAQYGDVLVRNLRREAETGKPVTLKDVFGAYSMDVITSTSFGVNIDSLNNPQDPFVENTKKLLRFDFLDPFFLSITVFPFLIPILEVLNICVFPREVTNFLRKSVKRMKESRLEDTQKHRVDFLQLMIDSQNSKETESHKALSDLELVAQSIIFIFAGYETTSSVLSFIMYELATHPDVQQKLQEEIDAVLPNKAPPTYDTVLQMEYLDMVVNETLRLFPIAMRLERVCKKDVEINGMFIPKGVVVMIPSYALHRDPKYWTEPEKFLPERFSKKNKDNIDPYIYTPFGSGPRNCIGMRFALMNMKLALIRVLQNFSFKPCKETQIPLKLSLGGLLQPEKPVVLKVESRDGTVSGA
# Fibroblast growth factor receptor 1 (Rattus norvegicus), sequence (Q04589 whole entry): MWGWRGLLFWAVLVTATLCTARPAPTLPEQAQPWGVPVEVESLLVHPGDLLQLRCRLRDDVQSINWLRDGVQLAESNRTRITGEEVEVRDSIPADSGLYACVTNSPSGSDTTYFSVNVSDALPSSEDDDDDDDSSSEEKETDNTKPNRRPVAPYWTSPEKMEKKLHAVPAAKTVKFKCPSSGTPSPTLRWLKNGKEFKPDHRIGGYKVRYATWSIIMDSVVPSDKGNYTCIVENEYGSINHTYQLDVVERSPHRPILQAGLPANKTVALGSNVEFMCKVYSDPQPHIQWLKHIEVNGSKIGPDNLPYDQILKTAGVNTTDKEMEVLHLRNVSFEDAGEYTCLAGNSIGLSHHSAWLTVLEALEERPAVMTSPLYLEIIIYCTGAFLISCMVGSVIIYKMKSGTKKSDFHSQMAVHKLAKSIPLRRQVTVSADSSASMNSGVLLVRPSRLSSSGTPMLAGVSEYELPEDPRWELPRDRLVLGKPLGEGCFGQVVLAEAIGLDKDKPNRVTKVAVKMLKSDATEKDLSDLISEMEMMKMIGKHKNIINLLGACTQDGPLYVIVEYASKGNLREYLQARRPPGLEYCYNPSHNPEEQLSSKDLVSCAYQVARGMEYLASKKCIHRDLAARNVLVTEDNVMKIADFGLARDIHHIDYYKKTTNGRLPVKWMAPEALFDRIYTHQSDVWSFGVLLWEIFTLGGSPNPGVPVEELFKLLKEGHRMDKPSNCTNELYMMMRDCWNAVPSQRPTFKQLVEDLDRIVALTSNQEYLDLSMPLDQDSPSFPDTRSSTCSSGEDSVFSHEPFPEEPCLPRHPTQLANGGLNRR
Compound,Drug metabolism [1],logP [2],"activity at 0.5 h, 100 µM (CYP3A4)",half-life [4],clearance [5],AUC [6],Kp at 1 h [7],bioavailability [8],half-life [9],Kp at 1 h [10],clearance [11],Activity [3],Activity [12]
Cc1nc(OCC(=O)N(C)C2CCN(Cc3ccccc3)CC2)nc(C)c1N,< 10 pmol/min,2.3,60%,–,–,–,–,–,–,–,–,–,–
Cc1ccc(OCc2cnnn2C2CCN(Cc3ccccc3)CC2)nn1,–,3.8,–,–,–,–,–,–,–,–,–,73%,–
Clc1cnc(OCc2cn(C3CCN(CC4CC4)CC3)nn2)nc1,24 pmol/min,2.6,100%,1.6 h,21.7 mL/min/kg,2120 ng·h/mL,1.1,58%,–,–,–,162%,–
Cc1c(COc2ncc(Cl)cn2)nnn1C1CCN(CC2CC2)CC1,< 10 pmol/min,2.4,94%,–,–,4520 ng·h/mL,–,57%,4 h,1.3,10 mL/min/kg,311%,inactive
Cc1ccc(OCc2cn(C3CCN(Cc4ccccc4)CC3)nn2)nn1,45 pmol/min,3.5,100%,–,–,–,–,–,–,–,–,135%,–
Cc1cnc(OCc2cn(C3CCN(CC4CC4)CC3)nn2)nc1,–,1.7,100%,–,–,–,–,–,–,–,–,100%,–

# Further lines, with some results ahead:
Drug metabolism [1],logP [2],"activity at 0.5 h, 100 µM (CYP3A4)",half-life [4],clearance [5],AUC [6],Kp at 1 h [7],bioavailability [8],half-life [9],Kp at 1 h [10],clearance [11],Compound,Activity [3],Activity [12]
40 pmol/min,4,100%,–,–,–,–,–,–,–,–,Cc1cnc(OCc2cn(C3CCN(Cc4ccccc4)CC3)nn2)nc1,66%,–
< 10 pmol/min,1.4,100%,–,–,–,–,–,–,–,–,Cc1nc(OCc2cn(C3CCN(CC4CC4)CC3)nn2)nc(C)c1N,116%,–
19 pmol/min,3,19%,–,–,–,–,–,–,–,–,Cc1nc(OCc2cn(C3CCN(Cc4ccccc4)CC3)nn2)nc(C)c1N,134%,inactive
86 pmol/min,5,99%,–,–,–,–,–,–,–,–,Clc1cnc(OCc2cn(C3CCN(Cc4ccccc4)CC3)nn2)nc1,43%,–
34 pmol/min,1.4,100%,–,–,–,–,–,–,–,–,Cc1ccc(OCc2cn(C3CCN(CC4CC4)CC3)nn2)nn1,118%,–
